The numbers were not newly measured in article PMC12211128, “Safety, tolerability, pharmacokinetic and pharmacodynamic effects of the muscarinic M1 positive allosteric modulator VU0467319 for Alzheimer’s disease: a single ascending-dose study in healthy participants” (Alzheimer's Research & Therapy, 2025), which cites them from elsewhere.

In one data set the test system is M1 mAChR. To be noted: cited from earlier work.
The subject of the next data set is Parkinson's disease. Also on record: method as in PMID 39761063. The conditions noted are these: cited from earlier work.

Take `COc1ccc(Cn2cc(C(=O)O)c(=O)c3ccccc32)cc1` [BQCA, benzyl quinolone carboxylic acid, reference compound]: in the data set with M1 mAChR, the “agonist and PAM properties at M1” value was “both agonist and PAM properties”.
In the case of `Cc1c(Cc2ccc(-n3cccn3)cc2)cc2c(c1F)CN([C@H]1COCC[C@@H]1O)C2=O` [TAK-071], the “cognitive performance in Parkinson's disease” value in the data set with Parkinson's disease is listed as “produced improvement in cognitive performance”.
